{
  "source": "patent US20130149395A1",
  "about": "“Pharmaceutical Product, Method of Production and Method of Application of the Pharmaceutical Product” (priority 2010, published 2013)",
  "assay": "Stability of 2,2-dichloropropionic acid during prolonged storage (NMR impurity identification)",
  "format": "physicochemical",
  "details": "transforms into pyroracemic acid or alpha chloroacrylic acid",
  "text": "The impurity identification of 2,2-dichloropropionic acid, taken as an example, has been conducted using the method of NMR spectroscopy on the ^1H and ^13C nuclei, one of the most informative methods, which allows to determine the composition of each impurity even if the numerous related compounds are found in the sample.",
  "data": [
    {"smiles": "CC(Cl)(Cl)C(=O)O", "note": "[2,2-dichloropropionic acid]", "values": [
      {"measurement": "Stability to daylight and prolonged storage", "value": "daylight-sensitive"}
    ]}
  ]
}
